Experimental data as given in publication PMC3565751, “The Feasibility of Enzyme Targeted Activation for Amino Acid/Dipeptide Monoester Prodrugs of Floxuridine; Cathepsin D as a Potential Targeted Enzym” (Molecules, 2012).

How the values were obtained:
[1] = tested on: Capan-2 cell homogenates and cytosolic enzyme extracts; experiment: Prodrug stability in cytosolic enzyme extract versus whole cell homogenate of Capan-2 cells; format: in vitro ADME
Procedure: In stability studies of test compounds in cell homogenates, the location of enzymes in living cells is not considered and the inaccessible enzymes in vivo condition may be able to degrade those analytes in this in vitro setting. Therefore, the result of prodrug stabilities in cell homogenate may be different to one in vivo, where all enzymes are arranged in all specific locations. The experiments of prodrug activation concerning the location of enzymes in cells were performed at 37 °C in Capan-2 cell homogenates and in cytosolic enzyme extracts. For the comparison purpose, the same experiments were performed at 37 °C in Caco-2 cell homogenates and in cytosolic enzyme extracts. […] The difference between them was minimal (1.4- to 2.5 fold). […] In Capan-2 cells, the stabilities of 5′-O-L-phenylalanyl-L-glycylfloxuridine and 5′-O-L-phenylalanylfloxuridine were improved 7.4- and 7.3-fold, while the ones of 5′-O-L- phenylalanyl-L-tyrosylfloxuridine and 5′-O-L-glycyl-L-leucylfloxuridine were declined 3.9- and 6.0-fold, respectively.
(§1) Preparation of Cytosolic Enzyme Extract. Confluent Caco-2 cells and Capan-2 cells (2 plates; 150 mm × 25 mm plate) were rinsed with saline twice. The cells were washed off with 1 mL of pH 7.4 phosphate buffer (10 mmol/L) and the enzymes were extracted through 30 gauge needle 10 times in ice-cold bath. Cell suspension was spun at 10,000 × g for 2 h at 4 °C and the supernatant was spun at 39,000 × g for 2 h at 4 °C. Protein amount was quantified with the Bio-Rad (Hercules, CA, USA) DC Protein Assay using bovine serum albumin as a standard. The protein amount was adjusted to 500 µg/mL and the hydrolysis reactions were carried out in 96-well plates (Corning). Caco-2 cells and Capan-2 cell suspensions (250 µL) were placed in triplicate wells either presence or absence of various inhibitors, the reactions were started with the addition of substrate (200 µM), and wells were incubated at 37 °C for 120 min (time points; 0, 5, 10, 30, 60, and 120 min). At each time point, aliquot sample (35 µL) was removed and added to 150 µL of acetonitrile (ACN) with 0.1% TFA to prevent the further degradation. The mixtures were filtered with a 0.45 µm filters at 1,000 × g for 10 min at 4 °C. The filtrate wasthen analyzed via reverse-phaseHPLC.
(§2) The initial rates of hydrolysis were used to obtain the apparent first-order rate constants and estimate the half-lives. The apparent first-order degradation rate constants of various floxuridine prodrugs at 37 °C were determined by plotting the logarithm of prodrug remaining as a function of time. The slopes of these plots are related to the rate constant, k, and given by:
(§3) The concentrations of prodrugs and their metabolites were determined on a Waters HPLC system (Waters, Inc., Milford, MA, USA). The HPLC system consisted of two Waters pumps (model 515), a Waters autosampler (WISP model 712), and a Waters UV detector (996 photodiode array detector). The system was controlled by Waters Millennium 32 software (version 3.0.1). Samples were injected onto a Waters Xterra C18 reverse-phase column (5 µm, 4.6 × 250 mm) equipped with a guard column. The compounds were eluted using gradient method. All prodrugs were run with the solvent B gradient changing 0% to 56% at a rate of 2%/min during a 28-min run. Standard curves generated for each prodrug and their parent drugs were used for quantitation of integrated area under peaks.

Capan-2 cell homogenate = experiment: Prodrug hydrolysis in Capan-2 cell homogenate with the presence and the absence of selective enzyme inhibitors; format: in vitro ADME; conditions: for Half Life, DPP 3 Inhibitor: Capan-2 cell homogenate with 1,10-phenanthroline; for Half Life, DPP 3 Inhibitor / Half Life, TPP 2 Inhibitor / Half Life, Cathepsin D Inhibitor / Half Life, Aminopeptidase Inhibitor / Half Life, Capan-2 Cell Homogenate: 37 °C; for Half Life, DPP 3 Inhibitor / Half Life, TPP 2 Inhibitor / Half Life, Cathepsin D Inhibitor / Half Life, Aminopeptidase Inhibitor: pH 7.4; for Half Life, TPP 2 Inhibitor: Capan-2 cell homogenate with H-Ala-Ala-Phe-CMK CF3CO2H; for Half Life, Cathepsin D Inhibitor: Capan-2 cell homogenate with pepstatin A; for Half Life, Aminopeptidase Inhibitor: Capan-2 cell homogenate with puromycin; for Half Life, Capan-2 Cell Homogenate: no inhibitor, pH 7.4 phosphate buffer, 200 µM substrate, mean ± s.d.
Procedure: Hydrolysis StudiesPreparation of Capan-2 cell homogenates. Preparation of cell homogenates has been reported previously. Confluent Capan-2 cells (2 plates; 150 mm × 25 mm plate) were rinsed with saline twice. The cells were washed off with 5 mL of pH 7.4 phosphate buffer (10 mmol/L) and the lysed cells by ultrasonication (Micro ultrasonic cell disrupter Model KT40, Kontes, Vineland, NJ, USA) were spun down by centrifugation.
as §1, §2
k = 2.303 × slope (log C vs. time) (1)
The degradation half-lives were then estimated by the equation: […]
as §3

Capan-2 cell lines = experiment: Cell proliferation (XTT) assay; format: cell-based; conditions: 4 mmol/L, 4 h drug treatment
Procedure: The percentage of growth inhibition for amino acid/dipeptide monoester prodrugs of floxuridine in Capan-2 cell was evaluated via 2,3-bis[2-methoxy-4-nitro-5-sulfophenyl]-2H-tetrazolium-5-carboxanilideinner salt (XTT) assays (Figure 3). The growth inhibitory effect of tested floxuridine prodrugs after 4 h drug treatment range from 0.0–91.1% at 4 h, 0.0–84.2% at 8 h, and 41.8–84.8% at 24 h in Capan-2 cell lines. […] While specific activation enzymes for 5′-O-L-leucyl-L-glycylfloxuridine and 5′-O-L-phenylalanylfloxuridine have not been identified, those enzymes may be highly localized at the plasma membrane and cytosol. Thus, the activation of those prodrugs took place immediately after translocation of prodrugs into the cells and started inhibiting tumor growth. Leucine and phenylalanine are reportedly good substrates for aminopeptidases and carboxylesterase, respectively.
Cell proliferation studies were conducted with Capan-2 cell lines. The cells were seeded into 96-well plates at […] per well and allowed to attach/grow for 24 h before drug solutions were added. The culture medium (RPMI-1640 + 10% fetal bovine serum) was removed and the cells were gently washed once with sterile pH 6.0 uptake buffer (145 mM NaCl, 0.5 mM MgCl2, 1 mM NaH2PO4, 1 mM CaCl2, 3 mM KCl, 5 mM glucose, and 5 mM MES). Floxuridine prodrugs and floxuridine were diluted in pH 6.0 uptake buffer to 4 mmol/L using no drug as a 100% viability control. The wash buffer was removed and 25 µL drug solution per well were added and incubated at 37 °C for 4 h in the cell incubator. After this time, the drug solutions were removed and the cells were again gently washed twice with sterile uptake buffer. RPMI-1640 was then added to each well after washing. The cells were allowed to recover for 4 h, 8 h, or 24 h before evaluating cell viability via 2,3-bis[2-methoxy-4-nitro-5-sulfophenyl]-2H-tetrazolium-5-carboxanilide inner salt (XTT) assays. […] Absorbance readings at 450 nm were recorded.

[2] = set-up: method as in PMID 18719516; conditions: pH 7.4 phosphate buffer; mean ± s.d.; ref [50]; cited from earlier work
human cathepsin D = target: T1, human cathepsin D (Homo sapiens, UniProt P07339); experiment: Prodrug stability with human cathepsin D; format: biochemical; conditions: pH 7.4 phosphate buffer, 37 °C, 200 µM substrate
T1 construct: cathepsin B (human liver), and cathepsin D (human liver) were obtained from Sigma Chemical Co; purchased Sigma Chemical Co (St. Louis, MO, USA); host or cells: human liver (tissue-derived)
T1 sequence (P07339 169-412 limits assumed): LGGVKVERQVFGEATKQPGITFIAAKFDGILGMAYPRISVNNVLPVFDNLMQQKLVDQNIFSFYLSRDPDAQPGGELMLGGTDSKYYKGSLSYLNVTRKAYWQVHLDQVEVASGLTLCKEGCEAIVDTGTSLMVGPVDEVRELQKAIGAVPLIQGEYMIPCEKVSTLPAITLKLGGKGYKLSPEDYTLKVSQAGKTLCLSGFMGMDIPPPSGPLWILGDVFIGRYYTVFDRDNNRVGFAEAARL
T1 sequence (P07339 65-162 limits assumed): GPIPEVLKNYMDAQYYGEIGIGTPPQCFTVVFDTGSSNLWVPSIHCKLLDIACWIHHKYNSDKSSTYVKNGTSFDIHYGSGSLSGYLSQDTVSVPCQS
From the text: (§4) The high expression levels of cathepsins in tumors have been reported. It has been investigated if the protein levels of cathepsin B and D would associate with pathological parameters in order to assess the difference in protein levels of cathepsins as possible tumor biomarkers. Cathepsin B, one of the highest gene expressions in enzymes of Capan-2 cell, is a cysteine endopeptidase and reportedly has similar activity to carboxypeptidase and peptidyl-dipeptidase. On the other hand, cathepsin D has been reported that it preferentially hydrolyzes the peptide bond of bulky hydrophobic amino acids and the peptide bond between Phe-Phe of Bz-Arg-Gly-Phe-Phe-Pro-4MbNA [75, 76, 77]. The metabolic stability of floxuridine prodrugs was assessed using human cathepsin B and D in pH 7.4 phosphate buffer. […] However, the enzyme specificity between cathepsin B and D in prodrug activation for those two prodrugs was not observed.
(§5) Prodrug stability with Cathepsin B and D. Lyophilized enzyme powder was dissolved and adjusted to 2.5 mg/mL of pure enzyme, human cathepsin B and D. The hydrolysis reactions were immediately started by adding substrates (200 µM) in 96-well plates (Corning). The reactions were carried out at 37 °C for 120 min (time points; 0, 5, 10, 30, 60, and 120 min). At each time point, aliquot sample (35 µL) was removed and added to 150 µL of acetonitrile (ACN) with 0.1% TFA. The mixtures were filtered with a 0.45 µm filters at 1,000 × g for 10 min at 4 °C. The filtrate was then analyzed via reverse-phase HPLC.
(§6) The initial rates of hydrolysis were used to obtain the apparent first-order rate constants and estimate the half-lives. The apparent first-order degradation rate constants of various floxuridine prodrugs at 37 °C were determined by plotting the logarithm of prodrug remaining as a function of time. […]
(§7) The concentrations of prodrugs and their metabolites were determined on a Waters HPLC system (Waters, Inc., Milford, MA, USA). […] Standard curves generated for each prodrug and their parent drugs were used for quantitation of integrated area under peaks.

human cathepsin B = target: T2, human cathepsin B (Homo sapiens, UniProt P07858); experiment: Prodrug stability with human cathepsin B; format: biochemical; conditions: pH 7.4 phosphate buffer, 37 °C, 200 µM substrate
T2 construct: cathepsin B (human liver), and cathepsin D (human liver) were obtained from Sigma Chemical Co; purchased Sigma Chemical Co (St. Louis, MO, USA); host or cells: human liver (tissue-derived)
From the text: as §4, §5, §6, §7

| Compound | Half Life, DPP 3 Inhibitor (Capan-2 cell homogenate) | Half Life, TPP 2 Inhibitor (Capan-2 cell homogenate) | Half Life, Cathepsin D Inhibitor (Capan-2 cell homogenate) | Half Life, Aminopeptidase Inhibitor (Capan-2 cell homogenate) | Half Life, Capan-2 Cell Homogenate (Capan-2 cell homogenate) | Fold decline of stability in cytosolic extract versus Capan-2 cell homogenate ([1]; 37 °C, pH 7.4 phosphate buffer) | Stability (degradation) against cathepsin D compared with absence of enzyme (human cathepsin D) | Stability (degradation) against cathepsin B compared with absence of enzyme (human cathepsin B) | Change of half life with the presence of pepstatin A (Capan-2 cell homogenate; Capan-2 cell homogenate) | Change of half lives with other enzyme inhibitors (not pepstatin A) (Capan-2 cell homogenate; Capan-2 cell homogenate) | Hydrolysis products detected in cell homogenates and cytosolic enzyme extracts [1] | Change of stability in all conditions (with and without enzyme inhibitors) (Capan-2 cell homogenate; Capan-2 cell homogenate) | Hydrolysis products observed (Capan-2 cell homogenate; Capan-2 cell homogenate) | Onset of growth inhibition of tumor cells (Capan-2 cell lines) | Half Life, Phosphate Buffer pH 7.4 [2] |
| --- | --- | --- | --- | --- | --- | --- | --- | --- | --- | --- | --- | --- | --- | --- | --- |
| CC(C)C[C@H](NC(=O)CN)C(=O)OC[C@H]1O[C@@H](n2cc(F)c(=O)[nH]c2=O)C[C@@H]1O [5'-O-L-glycyl-L-leucylfloxuridine] |  |  |  |  |  |  |  |  |  |  | Floxuridine and amino acid mono ester prodrugs of floxuridine were observed | no change in its stability in all conditions | Amino acid monoester prodrugs of floxuridine and their parent drug were observed |  |  |
| CC[C@H](C)[C@H](N)C(=O)NCC(=O)OC[C@H]1O[C@@H](n2cc(F)c(=O)[nH]c2=O)C[C@@H]1O [5′-O-L-isoleucyl-L-glycylfloxuridine] |  |  |  |  |  |  |  |  |  |  | only floxuridine was detected |  |  |  |  |

The next lines start with results.

| Half Life, DPP 3 Inhibitor (Capan-2 cell homogenate) | Half Life, TPP 2 Inhibitor (Capan-2 cell homogenate) | Half Life, Cathepsin D Inhibitor (Capan-2 cell homogenate) | Half Life, Aminopeptidase Inhibitor (Capan-2 cell homogenate) | Half Life, Capan-2 Cell Homogenate (Capan-2 cell homogenate) | Fold decline of stability in cytosolic extract versus Capan-2 cell homogenate ([1]; 37 °C, pH 7.4 phosphate buffer) | Stability (degradation) against cathepsin D compared with absence of enzyme (human cathepsin D) | Stability (degradation) against cathepsin B compared with absence of enzyme (human cathepsin B) | Change of half life with the presence of pepstatin A (Capan-2 cell homogenate; Capan-2 cell homogenate) | Change of half lives with other enzyme inhibitors (not pepstatin A) (Capan-2 cell homogenate; Capan-2 cell homogenate) | Compound | Hydrolysis products detected in cell homogenates and cytosolic enzyme extracts [1] | Change of stability in all conditions (with and without enzyme inhibitors) (Capan-2 cell homogenate; Capan-2 cell homogenate) | Hydrolysis products observed (Capan-2 cell homogenate; Capan-2 cell homogenate) | Onset of growth inhibition of tumor cells (Capan-2 cell lines) | Half Life, Phosphate Buffer pH 7.4 [2] |
| --- | --- | --- | --- | --- | --- | --- | --- | --- | --- | --- | --- | --- | --- | --- | --- |
| 32.2 ± 9.3 min | 5.6 ± 0.6 min | 7.9 ± 0.7 min | 14.0 ± 4.3 min | 3.9 ± 1.1 min |  |  |  |  |  | CC(C)C[C@H](N)C(=O)NCC(=O)OC[C@H]1O[C@@H](n2cc(F)c(=O)[nH]c2=O)C[C@@H]1O [5'-O-L-leucyl-L-glycylfloxuridine] | only floxuridine was detected |  |  | immediately inhibited the growth of tumor cells | 23.1 ± 4.1 min |
| 47.2 ± 3.6 min | 42.2 ± 1.3 min | 105.7 ± 12.8 min | 54.7 ± 2.8 min | 42.8 ± 0.0 min | 3.9 fold | significant degradation | significant degradation | significantly prolonged | not improved | N[C@@H](Cc1ccccc1)C(=O)N[C@@H](Cc1ccc(O)cc1)C(=O)OC[C@H]1O[C@@H](n2cc(F)c(=O)[nH]c2=O)C[C@@H]1O [5'-O-L-phenylalanyl-L-tyrosyl-floxuridine] | Floxuridine and amino acid mono ester prodrugs of floxuridine were observed |  | Amino acid monoester prodrugs of floxuridine and their parent drug were observed |  | 233.9 ± 6.6 min |
| 67.7 ± 15.1 min | 46.1 ± 1.9 min | 76.4 ± 6.1 min | 93.6 ± 29.3 min | 56.2 ± 12.8 min |  | not a good substrate for cathepsins | not a good substrate for cathepsins |  |  | CC(C)[C@H](N)C(=O)N[C@@H](Cc1ccccc1)C(=O)OC[C@H]1O[C@@H](n2cc(F)c(=O)[nH]c2=O)C[C@@H]1O [5'-O-L-valyl-L-phenylalanyl-floxuridine] | Floxuridine and amino acid mono ester prodrugs of floxuridine were observed |  | Amino acid monoester prodrugs of floxuridine and their parent drug were observed |  | 104.7 ± 7.0 min |
